Data reported in patent US20250122225A1, “MASP-2 INHIBITORS AND METHODS OF USE” (Omeros Corporation, priority 2023, published 2025).
Counter-ions that a name gives are not always drawn.

Columns and labels:
MASP-2 (CCP1-CCP2-SP) = target: T1, MASP-2 (CCP1-CCP2-SP) (Homo sapiens, UniProt O00187); assay: Enzymatic assay for MASP-2 inhibitory activity (fluorogenic substrate); type: biochemical
T1 construct: 15 μL of Enzyme MASP-2 (CCP1-CCP2-SP) in Assay Buffer
Experimental: The MASP-2 assay utilizes a fluorogenic substrate, based on the cleavage site for its natural substrate C2. The assay was run at room temperature in an assay buffer containing 20 mM HEPES, pH 7.4, 140 mM NaCl and 0.1% Tween 20. Assay parameters were adjusted such that the assay was linear with respect to time, enzyme, and substrate concentrations. Under the optimized assays conditions, IC50 values were equivalent to Ki values, except in the few cases of “tight binding” inhibitors. Cases of “tight binding” or possible “slow binding” inhibitors were handled by the methods described in Copeland R. A. (2013) Evaluation of Enzyme Inhibitors in Drug Discovery. 2nd Ed., John Wiley and Sons, Inc., Chapters 5-7.
The MASP-2 assay protocol was carried out as follows. Test compounds were serially diluted in DMSO and then 100 nL of each dilution was transferred to the assay plate(s). 10 μL of Assay Buffer was added, followed by 15 μL of Enzyme MASP-2 (CCP1-CCP2-SP) in Assay Buffer. 15 μL of Substrate in Assay Buffer was then added and the mixture was mixed to start the reaction. After 20 min at room temperature, 15 μL of a stop solution (0.1 M acetic acid) was added, the sample was mixed, and the plates were read on a SpectraMax i3x Microplate Reader with the data exported as an Excel file. Each assay plate included a “no inhibitor” (DMSO only) control, a “no enzyme” control, and a reference inhibitor control. % Activity values=100*(average test comp. fluorescence−average “no enzyme” fluorescence)/(average “DMSO only” fluorescence−average “no enzyme” fluorescence). IC50 and Ki replicate values were very reproducible, with values well within ±2-fold.

human α-thrombin = target: T2, human α-thrombin (Homo sapiens, UniProt P00734); assay: Enzymatic assay for thrombin (fluorogenic peptide substrate Boc-VPR-AMC); type: biochemical
T2 construct: enzyme (human α-thrombin (BioPharm® Lab.)) in assay buffer; purchased BioPharm® Lab
Experimental: The thrombin assay utilizes a fluorogenic peptide substrate (Boc-VPR-AMC (R&D Systems) and was run at room temperature in an assay buffer containing 20 mM Hepes, pH 7.4, 140 mM NaCl and 0.1% Tween 20. Assay parameters were adjusted such that the assay was linear with respect to time, enzyme, and substrate concentrations. Under these optimized assays conditions, IC50 values were equivalent to Ki values, except in a few cases of “tight binding” inhibitors. Cases of “tight binding” or possible “slow binding” inhibitors were handled by the methods described in Copeland R. A. (2013) Evaluation of Enzyme Inhibitors in Drug Discovery. 2nd Ed. John Wiley and Sons, Inc., Chapters 5-7.
The thrombin assay protocol was carried out as follows. Test compounds were serially diluted in DMSO and then 100 nL of each dilution was transferred to the assay plate(s). 10 μL of Assay Buffer was added, followed by 15 μL of enzyme (human α-thrombin (BioPharm® Lab.)) in assay buffer. 15 μL of substrate in assay buffer was then added and the sample mixed to start the reaction. After 20 min at room temperature, 15 μL of a stop solution (0.1 M acetic acid) was added, the sample was mixed, and the plates were read on a SpectraMax® i3x Microplate Reader with the data exported as Excel files. Each assay plate included a “no inhibitor” (DMSO only) control, a “no enzyme” control, and a reference inhibitor control. % Activity values=100*(ave. test comp. fluorescence−ave. “no enz” fluorescence)/(ave. “DMSO only” fluorescence−ave. “no enz” fluorescence). IC50 and Ki values were very reproducible, with values falling well within ±2-fold.

T1 sequence (O00187 445-686 limits assumed): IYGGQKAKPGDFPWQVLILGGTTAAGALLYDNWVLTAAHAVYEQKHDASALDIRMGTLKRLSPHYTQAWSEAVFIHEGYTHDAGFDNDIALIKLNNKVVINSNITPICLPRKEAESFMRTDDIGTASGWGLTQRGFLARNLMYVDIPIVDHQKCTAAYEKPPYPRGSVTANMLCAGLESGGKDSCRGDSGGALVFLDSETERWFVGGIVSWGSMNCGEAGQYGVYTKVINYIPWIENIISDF
T1 sequence (O00187 287-444 partner limits assumed): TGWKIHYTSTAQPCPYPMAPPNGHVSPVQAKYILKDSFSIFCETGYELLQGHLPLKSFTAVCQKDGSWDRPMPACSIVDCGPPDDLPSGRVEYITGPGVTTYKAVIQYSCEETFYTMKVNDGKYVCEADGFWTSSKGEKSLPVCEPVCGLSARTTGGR

| Compound | Ki (MASP-2 (CCP1-CCP2-SP)) | Ki (human α-thrombin) |
| --- | --- | --- |
| Cc1ccc(F)c(CNc2nc(Cl)c3n(c2=O)[C@H](C(=O)NCc2ccc(N)nc2C)CC3)c1 [Compound 20, (S)-N-((6-amino-2-methylpyridin-3-yl)methyl)-1-chloro-3-((2-fluoro-5-methylbenzyl)amino)-4-oxo-4,6,7,8-tetrahydropyrrolo[1,2-a]pyrazine-6-carboxamide] | < 0.5 µM | 0.5 to 2.5 µM |
| Cc1ccc(F)c(CNc2nc(Cl)c3n(c2=O)[C@H](C(=O)NCc2cc4cnccc4[nH]2)CC3)c1 [Compound 21, (S)-N-((1H-pyrrolo[3,2-c]pyridin-2-yl)methyl)-1-chloro-3-((2-fluoro-5-methylbenzyl)amino)-4-oxo-4,6,7,8-tetrahydropyrrolo[1,2-a]pyrazine-6-carboxamide] | < 0.5 µM | 2.5 to 10 µM |
| COCCCCNc1nc(Cl)c2n(c1=O)[C@H](C(=O)NCc1cc3cnccc3[nH]1)CC2 [Compound 22, (S)-N-((1H-pyrrolo[3,2-c]pyridin-2-yl)methyl)-1-chloro-3-((4-methoxybutyl)amino)-4-oxo-4,6,7,8-tetrahydropyrrolo[1,2-a]pyrazine-6-carboxamide] | < 0.5 µM | 10 to 25 µM |
| Cc1cc(CNc2nc(Cl)c3n(c2=O)[C@H](C(=O)NCc2cc4cnccc4[nH]2)CC3)cc(C(F)(F)F)c1 [Compound 23, (S)-N-((1H-pyrrolo[3,2-c]pyridin-2-yl)methyl)-1-chloro-3-((3-methyl-5-(trifluoromethyl)benzyl)amino)-4-oxo-4,6,7,8-tetrahydropyrrolo[1,2-a]pyrazine-6-carboxamide] | < 0.5 µM | > 25 µM |
| Cc1cc(C)cc(CNc2nc(Cl)c3n(c2=O)[C@H](C(=O)NCc2ccc(N)nc2C)CC3)c1 [Compound 24, trifluoroacetate] | < 0.5 µM | 2.5 to 10 µM |
| O=C(NCc1cc2cnccc2[nH]1)[C@@H]1CCc2c(Cl)nc(NCc3cccc(F)c3)c(=O)n21 [Compound 25, (S)-N-((1H-pyrrolo[3,2-c]pyridin-2-yl)methyl)-1-chloro-3-((3-fluorobenzyl)amino)-4-oxo-4,6,7,8-tetrahydropyrrolo[1,2-a]pyrazine-6-carboxamide] | < 0.5 µM | 10 to 25 µM |
| Cc1ccc(CNc2nc(Cl)c3n(c2=O)[C@H](C(=O)NCc2cc4cnccc4[nH]2)CC3)cc1C [Compound 26, (S)-N-((1H-pyrrolo[3,2-c]pyridin-2-yl)methyl)-1-chloro-3-((3,4-dimethylbenzyl)amino)-4-oxo-4,6,7,8-tetrahydropyrrolo[1,2-a]pyrazine-6-carboxamide] | < 0.5 µM | 10 to 25 µM |
| Nc1nc2cc(CNC(=O)[C@@H]3CCc4c(Cl)nc(NCc5ccccc5)c(=O)n43)ccc2[nH]1 [Compound 29, trifluoroacetate] | < 0.5 µM | 10 to 25 µM |
| Cc1nc(N)ccc1CNC(=O)[C@@H]1CCc2c(Cl)nc(NCc3ccc(Cl)cc3)c(=O)n21 [Compound 30, trifluoroacetate] | < 0.5 µM | 2.5 to 10 µM |
| Cc1cc(C)cc(CNc2nc(Cl)c3n(c2=O)[C@H](C(=O)NCc2cc4c(s2)CNC4)CC3)c1 [Compound 31, (S)-1-chloro-N-((5,6-dihydro-4H-thieno[2,3-c]pyrrol-2-yl)methyl)-3-((3,5-dimethylbenzyl)amino)-4-oxo-4,6,7,8-tetrahydropyrrolo[1,2-a]pyrazine-6-carboxamide] | < 0.5 µM | 2.5 to 10 µM |
| Cc1cccc(CNc2nc(Cl)c3n(c2=O)[C@H](C(=O)NCc2cc4c(s2)CNC4)CC3)c1F [Compound 32, (S)-1-chloro-N-((5,6-dihydro-4H-thieno[2,3-c]pyrrol-2-yl)methyl)-3-((2-fluoro-3-methylbenzyl)amino)-4-oxo-4,6,7,8-tetrahydropyrrolo[1,2-a]pyrazine-6-carboxamide] | < 0.5 µM | 2.5 to 10 µM |
| Cc1cccc(CNc2nc(Cl)c3n(c2=O)[C@H](C(=O)NCc2cc4c(s2)CNC4)CC3)c1C [Compound 33, (S)-1-chloro-N-((5,6-dihydro-4H-thieno[2,3-c]pyrrol-2-yl)methyl)-3-((2,3-dimethylbenzyl)amino)-4-oxo-4,6,7,8-tetrahydropyrrolo[1,2-a]pyrazine-6-carboxamide] | < 0.5 µM | 2.5 to 10 µM |
| O=C(NCc1cc2c(s1)CNC2)[C@@H]1CCc2c(Cl)nc(NCc3cccc(C(F)F)c3)c(=O)n21 [Compound 34, (S)-1-chloro-3-((3-(difluoromethyl)benzyl)amino)-N-((5,6-dihydro-4H-thieno[2,3-c]pyrrol-2-yl)methyl)-4-oxo-4,6,7,8-tetrahydropyrrolo[1,2-a]pyrazine-6-carboxamide] | < 0.5 µM | 2.5 to 10 µM |
| O=C(NCc1cc2c(s1)CNC2)[C@@H]1CCc2c(Cl)nc(NCc3ccccc3)c(=O)n21 [Compound 35] | < 0.5 µM | 2.5 to 10 µM |
| Cc1cc(C)cc(CNc2ncc3n(c2=O)[C@H](C(=O)NCc2ccc(N)nc2C)CC3)c1 [Compound 36, (S)—N-((6-amino-2-methylpyridin-3-yl)methyl)-3-((3,5-dimethylbenzyl)amino)-4-oxo-4,6,7,8-tetrahydropyrrolo[1,2-a]pyrazine-6-carboxamide] | < 0.5 µM | < 0.5 µM |
| Cc1cc(CNc2ncc3n(c2=O)[C@H](C(=O)NCc2ccc(N)nc2C)CC3)cc(C(F)(F)F)c1 [Compound 37, (S)-N-((6-amino-2-methylpyridin-3-yl)methyl)-3-((3-methyl-5-(trifluoromethyl)benzyl)amino)-4-oxo-4,6,7,8-tetrahydropyrrolo[1,2-a]pyrazine-6-carboxamide] | < 0.5 µM | < 0.5 µM |
| Cc1ccc(CNc2ncc3n(c2=O)[C@H](C(=O)NCc2ccc(N)nc2C)CC3)cc1C [Compound 38, (S)-N-((6-amino-2-methylpyridin-3-yl)methyl)-3-((3,4-dimethylbenzyl)amino)-4-oxo-4,6,7,8-tetrahydropyrrolo[1,2-a]pyrazine-6-carboxamide] | < 0.5 µM | < 0.5 µM |
| COc1cccc(CNc2ncc3n(c2=O)[C@H](C(=O)NCc2cc4cnccc4[nH]2)CC3)c1 [Compound 39, (S)-N-((1H-pyrrolo[3,2-c]pyridin-2-yl)methyl)-3-((3-methoxybenzyl)amino)-4-oxo-4,6,7,8-tetrahydropyrrolo[1,2-a]pyrazine-6-carboxamide trifluoroacetate] | < 0.5 µM | 2.5 to 10 µM |
| Cc1cc(C)cc(CNc2ncc3n(c2=O)[C@H](C(=O)NCc2ccccn2)CC3)c1 [Compound 40, (S)-3-((3,5-dimethylbenzyl)amino)-4-oxo-N-(pyridin-2-ylmethyl)-4,6,7,8-tetrahydropyrrolo[1,2-a]pyrazine-6-carboxamide trifluoroacetate] | 10 to 25 µM | > 25 µM |
| Cc1cc(C)cc(CNc2ncc3n(c2=O)[C@H](C(=O)NCc2cc4c(s2)CN(C)C4)CC3)c1 [Compound 42, (S)-3-((3,5-dimethylbenzyl)amino)-N-((5-methyl-5,6-dihydro-4H-thieno[2,3-c]pyrrol-2-yl)methyl)-4-oxo-4,6,7,8-tetrahydropyrrolo[1,2-a]pyrazine-6-carboxamide trifluoroacetate] | < 0.5 µM | 10 to 25 µM |
| Cc1cc(C)cc(CNc2ncc3n(c2=O)[C@H](C(=O)NC(C)c2cc4cnccc4[nH]2)CC3)c1 (stereo partly drawn) [Compound 43, (6S)-N-(1-(1H-pyrrolo[3,2-c]pyridin-2-yl)ethyl)-3-((3,5-dimethylbenzyl)amino)-4-oxo-4,6,7,8-tetrahydropyrrolo[1,2-a]pyrazine-6-carboxamide trifluoroacetate] | < 0.5 µM | > 25 µM |
| Cc1ccc(CNc2ncc3n(c2=O)[C@H](C(=O)NCc2cc4cnccc4[nH]2)CC3)cc1C [Compound 44, (S)-N-((1H-pyrrolo[3,2-c]pyridin-2-yl)methyl)-3-((3,4-dimethylbenzyl)amino)-4-oxo-4,6,7,8-tetrahydropyrrolo[1,2-a]pyrazine-6-carboxamide] | < 0.5 µM | 0.5 to 2.5 µM |
